The values below are quoted from earlier work in US6525095B1, “Propionate feed supplement” (New Mexico State University Technology Transfer Corporation, priority 2000, dated 2003).

The subject of the series is swine. The note with it: for Average daily gain / Average feed intake per day / Total insulin: 200 ppb chromium in feed.

Turning to `CCC(=O)[O-].CCC(=O)[O-].CCC(=O)[O-].[Cr+3]` [chromium (III) propionate], the Average daily gain result is “decrease”, the “Average feed intake per day” value is on record as “decrease” and the Total insulin entry is given as “remained unaffected”. Moreover, for the setting “during the insulin challenge”, the Glucose clearance result is “increased slightly more” and the Glucose half-life entry is “decreased”.

Regarding chromium (III) tripicolinate, the Average daily gain entry was “decrease”, the “Average feed intake per day” value is “decrease” and the Total insulin result is reported as “remained unaffected”. Also, the Glucose half-life entry (during the insulin challenge) is “decreased”.
